Laboratory results as given in patent US20230416228A1 (Forkhead Biotherapeutics, Inc., priority 2020, published 2023).

Molecular target: T1, human FOXO1 (constitutively active form Thr24Ala, Ser256Ala, Ser319Ala) (Homo sapiens, UniProt Q12778, S256A/S319A/T24A)
T1 construct: expressed in transfected cells; host or cells: HEK293 cells transfected with pcDNA3.1 plasmid
Test: FOXO1 inhibitor activity assay: cell-based transcriptional (luciferase) reporter assay in HEK293 cells
Settings: HEK293 cells transfected with insulin response element firefly luciferase reporter, FOXO1 and Renilla luciferase; 10-point dose response 50 μM to 2.5 nM; 24 hours
Method in brief: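 IC50 and maximal inhibition were fitted by 4-parameter logistic regression on normalized firefly/Renilla luciferase ratios. The 0% reference used RFP in place of FOXO1, and the 100% reference was DMSO-only with all plasmids.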

T1 sequence (Q12778 whole entry T24A/S256A/S319A): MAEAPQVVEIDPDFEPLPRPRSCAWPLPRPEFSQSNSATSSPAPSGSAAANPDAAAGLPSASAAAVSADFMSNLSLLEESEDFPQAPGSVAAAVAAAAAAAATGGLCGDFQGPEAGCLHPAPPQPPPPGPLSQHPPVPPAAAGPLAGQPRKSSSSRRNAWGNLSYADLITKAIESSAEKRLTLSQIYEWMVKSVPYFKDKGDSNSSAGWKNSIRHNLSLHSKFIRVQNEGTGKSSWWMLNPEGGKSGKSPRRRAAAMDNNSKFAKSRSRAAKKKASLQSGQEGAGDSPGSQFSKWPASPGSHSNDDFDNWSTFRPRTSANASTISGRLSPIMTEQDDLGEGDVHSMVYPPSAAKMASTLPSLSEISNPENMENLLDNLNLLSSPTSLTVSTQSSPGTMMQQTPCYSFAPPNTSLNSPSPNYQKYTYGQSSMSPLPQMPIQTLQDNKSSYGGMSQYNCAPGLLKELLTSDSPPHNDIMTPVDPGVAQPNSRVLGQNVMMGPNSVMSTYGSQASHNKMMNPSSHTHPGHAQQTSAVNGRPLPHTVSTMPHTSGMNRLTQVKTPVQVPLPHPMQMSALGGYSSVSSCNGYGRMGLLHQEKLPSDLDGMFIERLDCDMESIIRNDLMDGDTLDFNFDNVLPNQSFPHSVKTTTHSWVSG

Compared with `COCCN1CCN(c2ccc(C(=O)Nc3cc(-c4nc5cc(OC)cc(F)c5[nH]4)n(C)n3)cn2)CC1` [Compound A-190, N-[5-(7-fluoro-5-methoxy-1H-benzimidazol-2-yl)-1-methyl-pyrazol-3-yl]-6-[4-(2-methoxyethyl)piperazin-1-yl]pyridine-3-carboxamide], `Cn1nc(NC(=O)c2ccc(N3CCC(O)CC3)nc2)cc1-c1nc2cccc(F)c2[nH]1` [Compound A-134] is higher in IC50: < 0.1 µM for the first, 0.1 to 0.3 µM for the second.

First: O=C(Nc1cc(-c2nc3cc(F)ccc3[nH]2)[nH]n1)c1ccc(N2CCC(CO)CC2)nc1 [Compound A-80, N-[5-(5-fluoro-1H-benzimidazol-2-yl)-1H-pyrazol-3-yl]-6-[4-(hydroxymethyl)-1-piperidyl]pyridine-3-carboxamide]
Second: O=C(Nc1cc(-c2nc3ccccc3[nH]2)[nH]n1)c1ccc(N2CCC[C@H]2C(=O)O)nc1 [Compound A-48, (2S)-1-[5-[[5-(1H-benzimidazol-2-yl)-1H-pyrazol-3-yl]carbamoyl]-2-pyridyl]pyrrolidine-2-carboxylic acid]
The IC50 of the first is lower: < 0.1 µM for the first, > 1 µM for the second.

Going from `Cn1nc(NC(=O)c2ccc(OCCO)c(C(F)(F)F)c2)cc1-c1nc2ccccc2[nH]1` [Compound A-223, N-[5-(1H-benzimidazol-2-yl)-1-methyl-pyrazol-3-yl]-4-(2-hydroxyethoxy)-3-(trifluoromethyl)benzamide] to `N#Cc1cc(C(=O)Nc2cc(-c3nc4ccccc4[nH]3)[nH]n2)ccc1OCCO` [Compound A-144, N-[5-(1H-benzimidazol-2-yl)-1H-pyrazol-3-yl]-3-cyano-4-(2-hydroxy-ethoxy)benzamide], the IC50 rises from < 0.1 µM to > 1 µM.

`Cn1nc(NC(=O)c2ccc(N3CCC4(COC4)C3)nc2)cc1-c1nc2ccccc2[nH]1` [Compound A-268, N-[5-(1H-benzimidazol-2-yl)-1-methyl-pyrazol-3-yl]-6-(2-oxa-7-azaspiro[3.4]octan-7-yl)pyridine-3-carboxamide] and `CN1CCN(c2ccc(C(=O)Nc3cc(-c4nc5ccccc5[nH]4)n(C)n3)cn2)CC1CO` (centres unmarked) [Compound A-263, N-[5-(1H-benzimidazol-2-yl)-1-methyl-pyrazol-3-yl]-6-[3-(hydroxy-methyl)-4-methyl-piperazin-1-yl]pyridine-3-carboxamide] fall in the same range of IC50: 0.1 to 0.3 µM for the first, 0.1 to 0.3 µM for the second.

`COc1cc(F)c2[nH]c(-c3cc(NC(=O)c4ccc(OC)c(Cl)c4)n[nH]3)nc2c1` [Compound A-127, 3-chloro-N-[5-(7-fluoro-5-methoxy-1H-benzimidazol-2-yl)-1H-pyrazol-3-yl]-4-methoxy-benzamide] and `CN1CCN(c2ccc(C(=O)Nc3cc(-c4nc5ccccc5[nH]4)n(C)n3)cc2)CC1` [Compound A-212, N-[5-(1H-benzimidazol-2-yl)-1-methyl-pyrazol-3-yl]-4-(4-methyl-piperazin-1-yl)benzamide] cannot be ordered by IC50: < 0.1 µM for the first, < 0.1 µM for the second.

`CC(C)C(=O)N1CCN(c2ccc(C(=O)Nc3cc(-c4nc5ccccc5[nH]4)n(C)n3)cn2)CC1` [Compound A-244, N-[5-(1H-benzimidazol-2-yl)-1-methyl-pyrazol-3-yl]-6-[4-(2-methylpropanoyl)piperazin-1-yl]pyridine-3-carboxamide] showed an IC50 of 0.1 to 0.3 µM.
